The values that follow come from patent publication US7932246B2, “Histone deacetylase inhibitors” (Chroma Therapeutics Ltd., priority 2005, dated 2011).

Assay [1] concerns the target histone deacetylase activity (HeLa nuclear extract). Nature of the assay: HDAC fluorescent activity assay (Biomol, Fluor de Lys substrate). Format: biochemical. The settings on record: IC50 range. The procedure: The ability of compounds to inhibit histone deacetylase activities was measured using the commercially available HDAC fluorescent activity assay from Biomol. In brief, the Fluor de Lys™ substrate, a lysine with an epsilon-amino acetylation, is incubated with the source of histone deacetylase activity (HeLa nuclear extract) in the presence or absence of inhibitor. Deacetylation of the substrate sensitises the substrate to Fluor de Lys™ developer, which generates a fluorophore.
Data are expressed as a percentage of the control, measured in the absence of inhibitor, with background signal being subtracted from all samples, as follows:— % activity=[(S^i−B)/(S^o−B)]×100 where S^i is the signal in the presence of substrate, enzyme and inhibitor, S^o is the signal in the presence of substrate, enzyme and the vehicle in which the inhibitor is dissolved, and B is the background signal measured in the absence of enzyme.
Histone deacetylase activity from crude nuclear extract derived from HeLa cells was used for screening. The preparation, purchased from 4C (Seneffe, Belgium), was prepared from HeLa cells harvested whilst in exponential growth phase. The nuclear extract is prepared according to Dignam JD1983 Nucl. Acid. […] The final buffer composition was 20 mM Hepes, 100 mM KCl, 0.2 mM EDTA, 0.5 mM DTT, 0.2 mM PMSF and 20% (v/v) glycerol.

A further assay concerns HeLa cells. Nature of the assay: HeLa cell inhibition assay (SRB cell viability). It is filed as cell-based. The settings on record: Homo sapiens, HeLa, 72 h, IC50 range. The procedure:
HeLa cells growing in log phase were harvested and seeded at 1000 cells/well (200 μl final volume) into 96-well tissue culture plates. Following 24 h of cell growth cells were treated with compounds (final concentration of 20 μM). Plates were then re-incubated for a further 72 h before a sulphorhodamine B (SRB) cell viability assay was conducted according to Skehan 1990 J Natl Canc Inst 82, 1107-1112.
(§1) Data were expressed as a percentage inhibition of the control, measured in the absence of inhibitor, as follows:— % inhibition=100−[(S^i/S^o)×100] where S^i is the signal in the presence of inhibitor and S^o is the signal in the presence of DMSO.
IC50 values were determined by non-linear regression analysis, after fitting the results of eight data points to the equation for sigmoidal dose response with variable slope (% activity against log concentration of compound), using Graphpad Prism software.
(§2) IC50 results were allocated to one of 3 ranges as follows: […]

For the next assay, the system named is U937. Put plainly: U937 cell inhibition assay (WST-1 cell viability). Particulars: Homo sapiens, U-937; U937 cells, 72-96 h, WST-1 assay, IC50 range. It is filed as cell-based. The procedure:
(§3) Cancer cell lines (U937 and HUT) growing in log phase were harvested and seeded at 1000-2000 cells/well (100 μl final volume) into 96-well tissue culture plates. Following 24 h of growth cells were treated with compound. Plates were then re-incubated for a further 72-96 h before a WST-1 cell viability assay was conducted according to the suppliers (Roche Applied Science) instructions.
as §1
(§4) Dose response curves were generated from 8 concentrations (top final concentration 10 μM, with 3-fold dilutions), using 6 replicates.
(§5) IC50 values were determined by non-linear regression analysis, after fitting the results to the equation for sigmoidal dose response with variable slope (% activity against log concentration of compound), using Graphpad Prism software.
as §2
On the technique in general: Tetrazolium assays rely on reduction of a dye to a coloured formazan, in cell work by metabolically active cells.

In the next assay the test system is HUT. Nature of the assay: HUT cell inhibition assay (WST-1 cell viability). It is filed as cell-based. The settings on record: HUT cells, 72-96 h, WST-1 assay, IC50 range. The procedure:
as §3, §1, §4, §5, §2

Counter-ions that a name gives are not always drawn.

For the compound `O=C(NO)c1cnc(N2CC3C(C2)C3NS(=O)(=O)c2ccc3ccccc3c2)nc1` (stereo not drawn) [Example 1, N-Hydroxy 2-{6-[(2-naphthylsulfonyl)amino]-3-azabicyclo[3.1.0]hex-3-yl}pyrimidine-5-carboxamide trifluoroacetate], the IC50 is under 100 nM in assay [1], under 330 nM in the assay on HeLa cells, under 330 nM in the assay on U937 and under 330 nM in the assay with HUT.
Turning to `O=C(NO)c1cnc(N2CC3C(C2)C3NS(=O)(=O)c2cccs2)nc1` (stereo not drawn) [Example 2, N-Hydroxy 2-{6-[(thien-2-ylsulfonyl)amino]-3-azabicyclo[3.1.0]hex-3-yl}pyrimidine-5-carboxamide], the IC50 in the assay on HeLa cells, in the assay with U937 and in the assay with HUT was over 3300 nM each time.
In the case of `O=C(NO)c1cnc(N2CC3C(C2)C3NS(=O)(=O)c2cc(C(F)(F)F)cc(C(F)(F)F)c2)nc1` (stereo not drawn) [Example 3, N-Hydroxy 2-(6-{[(3,5-bistrifluoromethylphenyl)sulfonyl]amino}-3-azabicyclo[3.1.0]hex-3-1/1)pyrimidine-5-carboxamide], the IC50 is under 100 nM in assay [1], 331 to 3300 nM in the assay on HeLa cells, under 330 nM in the assay with U937 and under 330 nM with HUT.
On to `O=C(NO)c1cnc(N2CC3C(C2)C3NS(=O)(=O)c2ccc(OC(F)(F)F)cc2)nc1` (stereo not drawn) [Example 4, N-Hydroxy 2-(6-{[(4-trifluoromethoxyphenyl)sulfonyl]amino}-3-azabicyclo[3.1.0]hex-3-yl)pyrimidine-5-carboxamide], for which the IC50 in assay [1] is under 100 nM; in the assay with HeLa cells, 331 to 3300 nM; in the assay with U937, under 330 nM; in the assay on HUT, under 330 nM.
As to `O=C(NO)c1cnc(N2CC3C(C2)C3NC(=O)c2ccc3ccccc3c2)nc1` (stereo not drawn) [Example 5, N-Hydroxy 2-{6-[(naphthalene-2-carbonyl)amino]-3-aza-bicyclo[3.1.0]hex-3-yl}pyrimidine-5-carboxamide], the IC50 in assay [1] was under 100 nM; in the assay on HeLa cells, 331 to 3300 nM; in the assay with U937 it was 331 to 3300 nM; with HUT, under 330 nM.
Regarding `O=C(Cc1ccc(N2CCCS2(=O)=O)cc1)NC1C2CN(c3ncc(C(=O)NO)cn3)CC21` (stereo not drawn) [Example 6, N-Hydroxy 2-(6-{2-[4-(1,1-dioxoisothiazolidin-2-yl)phenyl]acetylamino}-3-azabicyclo[3.1.0]hex-3-yl)pyrimidine-5-carboxamide], the IC50 is under 100 nM in assay [1], over 3300 nM with HeLa cells, over 3300 nM in the assay with U937 and over 3300 nM with HUT.
As to `O=C(CCCCc1ccccc1)NC1C2CN(c3ncc(C(=O)NO)cn3)CC21` (stereo not drawn) [Example 7, N-Hydroxy 2-[6-(5-phenylpentanoylamino)-3-azabicyclo[3.1.0]hex-3-yl]pyrimidine-5-carboxamide], the IC50 in assay [1] is under 100 nM; with HeLa cells, 331 to 3300 nM; with U937 it was 331 to 3300 nM; with HUT, 331 to 3300 nM.
For the compound `O=C(CCCCCc1ccccc1)NC1C2CN(c3ncc(C(=O)NO)cn3)CC21` (stereo not drawn) [Example 8, N-Hydroxy 2-[6-(6-phenylhexanoyl)amino-3-azabicyclo[3.1.0]hex-3-yl]-pyrimidine-5-carboxamide], the IC50 in the assay with HeLa cells is 331 to 3300 nM; in the assay on U937, 331 to 3300 nM; in the assay on HUT, under 330 nM.
As for `O=C(NO)c1cnc(N2CC3C(C2)C3NC(=O)C2(c3ccccc3)CC2)nc1` (stereo not drawn) [Example 9, N-Hydroxy 2-(6-{[(1-phenylcyclopropyl)carbonyl]amino}-3-azabicyclo[3.1.0]hex-3-yl)pyrimidine-5-carboxamide], the IC50 in assay [1] was under 100 nM; in the assay with HeLa cells it was 331 to 3300 nM; in the assay on U937, 331 to 3300 nM; in the assay on HUT, 331 to 3300 nM.
On to `CC(C(=O)NC1C2CN(c3ncc(C(=O)NO)cn3)CC21)c1ccccc1` (stereo not drawn) [Example 10, N-Hydroxy 2-{6-[(2-phenylpropanoyl)amino]-3-azabicyclo[3.1.0]hex-3-yl}pyrimidine-5-carboxamide], for which the IC50 in assay [1] is under 100 nM; with HeLa cells, 331 to 3300 nM; in the assay on U937, 331 to 3300 nM; in the assay on HUT it was 331 to 3300 nM.
On to `O=C(Cc1ccsc1)NC1C2CN(c3ncc(C(=O)NO)cn3)CC21` (stereo not drawn) [Example 11, N-Hydroxy 2-{6-[(thien-3-ylacetyl)amino]-3-azabicyclo[3.1.0]hex-3-yl}pyrimidine-5-carboxamide], for which the IC50 in assay [1] was under 100 nM; in the assay with HeLa cells, 331 to 3300 nM; in the assay on U937 it was over 3300 nM; in the assay on HUT it was 331 to 3300 nM.
`O=C(NO)c1cnc(N2CC3C(C2)C3NC(=O)C2CCCCC2)nc1` (stereo not drawn) [Example 12, N-Hydroxy 2-{6-[(cyclohexylcarbonyl)amino]-3-azabicyclo[3.1.0]hex-3-yl}pyrimidine-5-carboxamide]: the IC50 in assay [1] is under 100 nM; in the assay with HeLa cells, 331 to 3300 nM; in the assay on U937, 331 to 3300 nM; with HUT it was 331 to 3300 nM.
On to `O=C(NO)c1cnc(N2CC3C(C2)C3NC(=O)c2ccccc2)nc1` (stereo not drawn) [Example 13, N-Hydroxy 2-[6-(benzoylamino)-3-azabicyclo[3.1.0]hex-3-yl]pyrimidine-5-carboxamide], for which the IC50 in the assay on HeLa cells, in the assay with U937 and in the assay on HUT was 331 to 3300 nM throughout.
Take `Cn1cc(CC(=O)NC2C3CN(c4ncc(C(=O)NO)cn4)CC32)c2ccccc21` (stereo not drawn) [Example 14, N-Hydroxy 2-{6-[2-(1-methyl-1H-indol-3-yl)acetylamino]-3-aza-bicyclo[3.1.0]hex-3-yl}pyrimidine-5-carboxamide]: the IC50 in assay [1] was under 100 nM; in the assay on HeLa cells, 331 to 3300 nM; in the assay on U937, 331 to 3300 nM; in the assay with HUT, 331 to 3300 nM.
On to `O=C(CCCOc1ccccc1)NC1C2CN(c3ncc(C(=O)NO)cn3)CC21` (stereo not drawn) [Example 15, N-Hydroxy 2-[6-(4-phenoxybutyrylamino)-3-azabicyclo[3.1.0]hex-3-yl]pyrimidine-5-carboxamide], for which the IC50 in assay [1] is under 100 nM; with HeLa cells, 331 to 3300 nM; with U937, 331 to 3300 nM; in the assay on HUT, 331 to 3300 nM.
With `O=C(NO)c1cnc(N2CC3C(C2)C3NC(=O)c2ccc3sccc3c2)nc1` (stereo not drawn) [Example 17, N-Hydroxy 2-{6-[(1-benzothien-5-ylcarbonyl)amino]-3-azabicyclo[3.1.0]hex-3-yl}pyrimidine-5-carboxamide], the IC50 is 331 to 3300 nM with HeLa cells, 331 to 3300 nM in the assay on U937 and under 330 nM with HUT.
On to `COc1ccc(CNC2C3CN(c4ncc(C(=O)NO)cn4)CC32)cc1` (stereo not drawn) [Example 21, N-Hydroxy 2-{6-[(4-methoxybenzyl)amino]-3-azabicyclo[3.1.0]hex-3-yl}pyrimidine-5-carboxamide], for which the IC50 in the assay with HeLa cells is 331 to 3300 nM; with U937, under 330 nM; in the assay on HUT, under 330 nM.
As to `O=C(NO)c1cnc(N2CC3C(C2)C3NCC2CCCCC2)nc1` (stereo not drawn) [Example 25, N-Hydroxy 2-{6-[(cyclohexylmethyl)amino]-3-azabicyclo[3.1.0]hex-3-yl}pyrimidine-5-carboxamide], the concentration for half-maximal inhibition (IC50) in the assay with HeLa cells, in the assay with U937 and with HUT was under 330 nM each time.
As for `O=C(NO)c1cnc(N2CC3C(C2)C3NCc2ccc(Br)cc2)nc1` (stereo not drawn) [Example 36, N-Hydroxy 2-{6-[(4-bromobenzyl)amino]-3-azabicyclo[3.1.0]hex-3-yl}pyrimidine-5-carboxamide], the IC50 in assay [1] is under 100 nM; in the assay on U937 it was under 330 nM; in the assay with HUT, under 330 nM.
With `CN(C)CCCN(C1C2CN(c3ncc(C(=O)NO)cn3)CC21)S(=O)(=O)c1ccc2ccccc2c1` (stereo not drawn) [Example 50, N-Hydroxy 2-{6-[(3-dimethylaminopropyl)(naphthalene-2-sulfonyl)amino]-3-azabicyclo[3.1.0]hex-3-yl}pyrimidine-5-carboxamide], the IC50 in assay [1] is under 100 nM; in the assay with U937, under 330 nM; in the assay on HUT it was under 330 nM.
Regarding `CN(C)CCN(C1C2CN(c3ncc(C(=O)NO)cn3)CC21)S(=O)(=O)c1ccc2ccccc2c1` (stereo not drawn) [Example 52, N-Hydroxy 2-{6-[(2-dimethylaminoethyl)(naphthalene-2-sulfonyl)-amino]-3-azabicyclo[3.1.0]hex-3-yl}pyrimidine-5-carboxamide], the IC50 in the assay on HeLa cells was 331 to 3300 nM; in the assay on U937, 331 to 3300 nM; with HUT it was under 330 nM.

One may read the IC50 as the point on the concentration scale where inhibition reaches its midpoint. Low values mean greater potency, high ones weaker potency.
